Laboratory results taken from patent publication US20210161997A1, “TREATING DISEASES VIA TARGETED MODULATION OF GENE SIGNALING NETWORKS” (Camp4 Therapeutics Corporation, priority 2018, published 2021).
Structures can show the parent of a compound that is named as a salt. Where two headings read alike, the source gives them in different places.

How the values were obtained:
Format in all cases: cell-based
[1] = test system: CPOX; assay: RNA-seq of CPOX expression in compound-treated primary human hepatocytes
Method: (§1) Human hepatocytes were obtained from two donors from Massachusetts General Hospital, namely MGH54 and MGH63, and one donor from Lonza, namely HUM4111B. Cryopreserved hepatocytes were cultured in plating media for 16 hours, transferred to maintenance media for 4 hours. Cultured on serum-free media for 2 hours, then a compound was added. The hepatocytes were maintained on the serum-free media for 16 hours prior to gene expression analysis. Primary human hepatocytes were stored in the vapor phase of a liquid nitrogen freezer (about −130° C.).
(§2) Human hepatocytes cultured as described above were plated in 24-well format, adding 375,000 cells per well in a volume of 500 ul plating medium. Four hours before treatment, cells were washed with PBS and the medium was changed to either: fresh maintenance medium (complete) or modified maintenance medium.
(§3) Compound stocks were prepared at 1000× final concentration and added in a 2-step dilution to the medium to reduce risk of a compound precipitating out of solution when added to the cells, and to ensure reasonable pipetting volumes. One at a time, each compound was first diluted 10-fold in warm (about 37° C.) modified maintenance medium (initial dilution=ID), mixed by vortexing, and the ID was diluted 100-fold into the cell culture (e.g. 5.1 ul into 1 well of a 24-well plate containing 0.5 mL medium). The plate was mixed by carefully swirling and after all wells were treated and returned to the incubator overnight. If desired, separate plates/wells were treated with vehicle-only controls and/or positive controls. If using multi-well plates, controls were included on each plate. After about 18 hours, cells were harvested for further analysis, e.g., ChIP-seq, RNA-seq, ATAC-seq, etc.
(§4) This protocol is a modified version of the following protocols: MagMAX mirVana Total RNA Isolation Kit User Guide (Applied Biosystems #MAN0011131 Rev B.0), NEBNext Poly(A) mRNA Magnetic Isolation Module (E7490), and NEBNext Ultra Directional RNA Library Prep Kit for Illumina (E7420) (New England Biosystems #E74901).
(§5) The MagMAX mirVana kit instructions (the section titled “Isolate RNA from cells” on pages 14-17) were used for isolation of total RNA from cells in culture. Two hundred μl of Lysis Binding Mix was used per well of the multiwell plate containing adherent cells (usually a 24-well plate).
(§6) For mRNA isolation and library prep, the NEBNext Poly(A) mRNA Magnetic Isolation Module and Directional Prep kit was used. RNA isolated from cells above was quantified, and prepared in […] of each sample in 50 μl of nuclease-free water. This protocol may be run in microfuge tubes or in a 96-well plate.
(§7) Standard QC were applied (read integrity, mapping statistics, library complexity, fragment bias) to remove unsatisfactory samples. […] Log 2 fold change and significance values were computed using PME count data (with replicates explicitly modeled versus pan-experiment controls), median ratio normalized, using maximum likelihood estimation rather than maximum a posteriori, and disabling the use of Cook's distance cutoff when determining acceptable adjusted p-values. […] RNA-seq signals were also normalized by read depth and visualized using the UCSC browser.
(§8) To identify small molecules that modulate target gene expression, primary human hepatocytes were prepared as a monoculture, and at least one small molecule compound was applied to the cells.
(§9) RNA-seq was performed to determine the effects of the compounds on the expression of the target genes in hepatocytes. Fold change was calculated by dividing the level of expression in the cell system that had been perturbed by the level of expression in an unperturbed system. Changes in expression having a p-value ≤0.05 were considered significant.
Significance was defined as an FPKM ≥0.5 a log 2(fold change) ≥0.3, and a q-value of ≤0.05.

[2] = test system: APOL1; assay: RNA-seq of APOL1 expression in compound-treated primary human hepatocytes; conditions: for mrna remaining at 10 µM: Homo sapiens, Hepatocyte, 16 h, read-out: APOL mRNA linear fold change
Method: as §1, §2, §3, §4, §5, §6
(§10) All pass filter reads from each sample were mapped against the human genome (assembly GRCh38/GCA_000001405.15 “no alt” analysis set merged with hs38d1/GCA_000786075.2) using two pass mapping via STAR version 2.5.3a (alignment parameters alignIntronMin=20; alignIntronMax=1000000; outFilterMismatchNmax=999; outFilterMismatchNoverLmax=0.05; outFilterType=BySJout; outFilterMultimapNmax=20; alignSJoverhangMin=8; alignSJDBoverhangMin=1; alignMatesGapMax=1000000) (Dobin et al., Bioinformatics (2012) 29(1):15-21). Genomic alignments were converted to transcriptome alignments based on reference transcript annotations from the Human GENCODE Gene Set release 24 (Harrow et al., Genome Res. (2012) 22(9): 1760-1774). Using unique and multimapped transcriptomic alignments, gene-level abundance estimates were computed using RSEM version 1.3.0 (Li and Dewey, BMC Bioinformatics (2011) 12:323) in a strand-aware manner, and including confidence interval sampling calculations, to arrive at posterior mean estimates (PME) of abundances (counts and normalized FPKM—fragments per kilobase of exon per million mapped fragments) from the underlying Bayesian model. Standard QC were applied (read integrity, mapping statistics, library complexity, fragment bias) to remove unsatisfactory samples.

[3] = test system: SLC37A4; assay: RNA-seq of SLC37A4 expression in compound-treated primary human hepatocytes
Method: as §1, §2, §3, §4, §5, §6, §10

[4] = test system: UGT1A1; assay: RNA-seq of UGT1A1 expression in compound-treated primary human hepatocytes
Outline: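 Cryopreserved primary human hepatocytes from three donors were plated in 24-well format, then treated with compound diluted from 1000× stocks in serum-free maintenance medium for about 16–18 h. Poly(A) RNA-seq log2 fold change was computed against vehicle/pan-experiment controls. Significance required FPKM ≥1, log2FC ≥0.5 and q ≤0.05.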

[5] = test system: FN1; assay: RNA-seq of FN1 expression in compound-treated primary human hepatocytes; conditions: perturbed vs unperturbed, significance FPKM ≥1, log 2(fold change) ≥0.5, q-value ≤0.05
Method: as §1, §2, §3, §4, §5, §6, §10

[6] = test system: ANGPTL3; assay: RNA-seq of ANGPTL3 expression in compound-treated primary human hepatocytes; conditions: additional compounds (Table 13), linear fold change
Outline: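 Cryopreserved primary human hepatocytes from three donors, plated at 375,000 cells/well, switched to complete or modified maintenance medium, then dosed with compound (stocks at 1000× final) for about 18 h. Poly(A) mRNA was sequenced directionally, mapped to GRCh38 with STAR, and gene-level abundance (counts, FPKM) estimated with RSEM against GENCODE 24.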

[7] = test system: SERPINC1 mRNA; assay: Quantitative PCR of SERPINC1 mRNA in primary human hepatocytes (Lonza Hu4282) treated with compounds; conditions: 72 h treatment, HU4282 primary human hepatocytes, relative to DMSO control (FIG. 7)
[8] = test system: MECP2 mRNA; assay: MECP2 mRNA in stellate cells; conditions: average fold change
[9] = test system: MECP2 mRNA; assay: MECP2 mRNA in primary human hepatocytes (donor 1, donor 2); conditions: human hepatocytes donor-2, average fold change
Method: as §1, §2, §3
Samples were amplified using Taqman probes from ThermoFisher.

[10] = test system: LECT2; assay: RNA-seq of LECT2 expression in compound-treated primary human hepatocytes
Method: as §1, §2, §3, §4, §5, §6, §7, §8, §9
Significance was defined as an FPKM ≥1, a log 2(fold change) ≥0.5, and a q-value of ≤0.05 for all targets except for CPOX.

[11] = RNA-seq, primary human hepatocytes, significance FPKM ≥0.5, log 2(fold change) ≥0.3, q-value ≤0.05

With `COc1cc(Nc2c(C#N)cnc3cc(OCCCN4CCN(C)CC4)c(OC)cc23)c(Cl)cc1Cl` [Bosutinib] the “CPOX Fold change (Log2)” value [1] was 0.34 Log2.
With `CC1OC2(CS1)CN1CCC2CC1` (stereo not shown) [CPD341_Cevimeline, Cevimeline] the mrna remaining at 10 µM ([2]; RNAseq, 10 uM dose (Table 20)) was 65.5%.
`CC[C@@H](CO)NC(=O)[C@@H]1C=C2c3cccc4[nH]cc(c34)C[C@H]2N(C)C1` [CPD388_Methylergonovine, Methylergonovine] was tested, and the mrna remaining at 10 µM [2] was 64.2%.
With `Clc1ccc(C(c2ccccc2Cl)C(Cl)Cl)cc1` (stereo not shown) [CPD446_Mitotane, Mitotane] the mrna remaining at 10 µM ([2]; RNAseq, 10 uM dose (Table 20)) was 65.5%.
`C[C@]12C=CC(=O)C=C1CC[C@@H]1[C@@H]2[C@@H](O)C[C@@]2(C)[C@H]1CC[C@]2(O)C(=O)CO` [CPD447_Prednisolone, Prednisolone] showed a mrna remaining at 10 µM ([2]; RNAseq, 10 uM dose (Table 20)) of 65.5%.
With `CC(C)C[C@H](NC(=O)[C@H](Cc1ccccc1)NC(=O)c1cnccn1)B(O)O` [CPD569_Bortezomib (PS-341), Bortezomib] the mrna remaining at 10 µM ([2]; RNAseq, 10 uM dose (Table 20)) was 63.7%.
`[Cl][Co][Cl]` [Cobalt chloride] was tested, and the “CPOX Fold change (Log2)” value [1] was 0.49 Log2 and the “SLC37A4 Fold Change (Log2)” value [3] was 1.09 Log2.
With `C[C@]12C[C@H](O)[C@H]3[C@@H](CCC4=CC(=O)CC[C@@]43C)[C@@H]1CC[C@@H]2C(=O)CO` [Corticosterone] the “CPOX Fold change (Log2)” value [1, 11] was 0.36 Log2, the “SLC37A4 Fold Change (Log2)” value [3] was 0.73 Log2 and the “UGT1A1 Fold Change (Log2)” value [4] was 0.86 Log2.
`C[C@@H](Oc1cc(-c2cnn(C3CCNCC3)c2)cnc1N)c1c(Cl)ccc(F)c1Cl` [Crizotinib] was tested, and the “FN1 Fold Change (Log2)” value [5] was −1.45 Log2, the “APOL1 Fold Change (Log2)” value ([2]; RNA-seq, primary human hepatocytes) was −0.56 Log2 and the “UGT1A1 Fold Change (Log2)” value [4] was 1.18 Log2.
For `CC(=O)N(O)CCCCCNC(=O)CCC(=O)N(O)CCCCCNC(=O)CCC(=O)N(O)CCCCCN` [Deferoxamine mesylate], the “CPOX Fold change (Log2)” value [1] was 0.37 Log2.
With `C[C@@H]1C[C@H]2[C@@H]3CCC4=CC(=O)C=C[C@]4(C)[C@@]3(F)[C@@H](O)C[C@]2(C)[C@@]1(O)C(=O)CO` [Dexamethasone] the “SLC37A4 Fold Change (Log2)” value [3] was 0.66 Log2.
`O=Cc1c2[nH]c3ccccc3c2cc2[nH]c3ccccc3c12` [FICZ] was tested, and the “ANGPTL3-LINEAR FOLD CHANGE” value [6] was 0.3231, the “CPOX Fold change (Log2)” value [1] was 0.44 Log2 and the “UGT1A1 Fold Change (Log2)” value [4] was 2.62 Log2.
`O=C1NC(=O)/C(=C/c2ccc3nccc(-c4ccncc4)c3c2)S1` [GSK1059615] was tested, and the “ANGPTL3-LINEAR FOLD CHANGE” value [6] was 0.1856 and the “APOL mRNA linear fold change” value ([2]; RNAseq, 10 uM dose (Table 20)) was 0.5105.
With `C[N+]1(C)CCC(OC(=O)C(O)(c2ccccc2)C2CCCC2)C1` (stereo not shown) [Glycopyrrolate] the “CPOX Fold change (Log2)” value [1, 11] was 0.31 Log2.
`O=C(O)CC[C@H]1CC[C@@](c2cc(F)ccc2F)(S(=O)(=O)c2ccc(Cl)cc2)CC1` [MK-0752] was tested, and the “CPOX Fold change (Log2)” value [1] was 0.34 Log2.
`CCc1nn(CCCN2CCN(c3cccc(Cl)c3)CC2)c(=O)n1CCOc1ccccc1` [Nefazodone] was tested, and the “CPOX Fold change (Log2)” value [1] was 0.35 Log2.
With `COc1ccc(-c2cc3c(C)nc(N)nc3n([C@H]3CC[C@H](OCCO)CC3)c2=O)cn1` [PF-04691502] the “ANGPTL3-LINEAR FOLD CHANGE” value [6] was 0.4506, the “SERPINC1 mRNA change in response to compound” value [7] was “dose dependent upregulation” and the “APOL mRNA linear fold change” value ([2]; RNAseq, 10 uM dose (Table 20)) was 0.5141. For the same molecule, the “Stellate MECP2 (Avg_FC) 1 uM” value ([8]; compound 1 uM) was 1.27, the “Stellate MECP2 (Avg_FC) 10 uM” value ([8]; compound 10 uM) was 2.78 and the “Human hep donor-2 MECP2 (Avg_FC) 1 uM” value ([9]; compound 1 uM) was 1.13. For the same molecule, the “Human hep donor-2 MECP2 (Avg_FC) 10 uM” value ([9]; compound 10 uM) was 1.88.
`COc1cc(Nc2ncc(F)c(Nc3ccc4c(n3)N(COP(=O)(O)O)C(=O)C(C)(C)O4)n2)cc(OC)c1OC` [R788 (fostamatinib disodium hexahydrate), fostamatinib disodium hexahydrate] was tested, and the “SLC37A4 Fold Change (Log2)” value [3] was 0.74 Log2 and the “UGT1A1 Fold Change (Log2)” value [4] was 0.85 Log2.
In the case of `O=C(NCCCn1ccnc1)c1cc(-c2ccco2)on1` [SKL2001], the “ANGPTL3-LINEAR FOLD CHANGE” value [6] is reported as 0.4323, the “CPOX Fold change (Log2)” value [1] is reported as 0.45 Log2 and the “FN1 Fold Change (Log2)” value [5] is reported as −0.81 Log2.
With `CN[C@H]1CC[C@@H](c2ccc(Cl)c(Cl)c2)c2ccccc21` [Sertraline HCl] the “ANGPTL3-LINEAR FOLD CHANGE” value [6] was 0.3816 and the mrna remaining at 10 µM ([2]; RNAseq, 10 uM dose (Table 20)) was 64.6%.
In the case of `CCN(CC)CCNC(=O)c1c(C)[nH]c(/C=C2\C(=O)Nc3ccc(F)cc32)c1C` [Sunitinib], the “ANGPTL3-LINEAR FOLD CHANGE” value [6] is reported as 0.3035 and the mrna remaining at 10 µM ([2]; RNAseq, 10 uM dose (Table 20)) is reported as 62%.
In the case of `CN1C(=O)c2sccc2N(C)c2nc(Nc3ccc(S(N)(=O)=O)cc3)ncc21` [XMU-MP-1], the “CPOX Fold change (Log2)” value [1] is reported as 0.37 Log2.
`C[C@]12C=CC(=O)C=C1CC[C@@H]1[C@@H]2C(=O)C[C@@]2(C)[C@H]1CC[C@]2(O)C(=O)CO` [prednisone] was tested, and the “CPOX Fold change (Log2)” value [1] was 0.44 Log2, the “LECT2 Fold Change (Log2)” value [10] was −0.65 Log2 and the “SLC37A4 Fold Change (Log2)” value [3] was 1.18 Log2.
IGF-1: IGF-1R activator was tested, and the “SLC37A4 Fold Change (Log2)” value [3] was 0.60 Log2.
In the case of TNF-a, the “SLC37A4 Fold Change (Log2)” value [3] is reported as 0.64 Log2.
